Measurements taken from US9012412B2, “Dual SGLT1/SGLT2 inhibitors” (Janssen Pharmaceutica NV, priority 2013, dated 2015).

How the values were obtained:
human SGLT1 = biological target: T1, human SGLT1 (Homo sapiens, UniProt P13866); test: Sodium-dependent 14C-methyl-α-D-glucopyranoside uptake in CHO-K1 cells stably expressing human SGLT1; type: cell-based; details: for IC50: 14C-methyl-α-D-glucopyranoside uptake; for inhibition at 3 µM: compound at 3 μM; for inhibition at 0.1 µM: compound at 0.1 μM
T1 construct: expressed in transfected cells
T1 sequence (P13866 1-664): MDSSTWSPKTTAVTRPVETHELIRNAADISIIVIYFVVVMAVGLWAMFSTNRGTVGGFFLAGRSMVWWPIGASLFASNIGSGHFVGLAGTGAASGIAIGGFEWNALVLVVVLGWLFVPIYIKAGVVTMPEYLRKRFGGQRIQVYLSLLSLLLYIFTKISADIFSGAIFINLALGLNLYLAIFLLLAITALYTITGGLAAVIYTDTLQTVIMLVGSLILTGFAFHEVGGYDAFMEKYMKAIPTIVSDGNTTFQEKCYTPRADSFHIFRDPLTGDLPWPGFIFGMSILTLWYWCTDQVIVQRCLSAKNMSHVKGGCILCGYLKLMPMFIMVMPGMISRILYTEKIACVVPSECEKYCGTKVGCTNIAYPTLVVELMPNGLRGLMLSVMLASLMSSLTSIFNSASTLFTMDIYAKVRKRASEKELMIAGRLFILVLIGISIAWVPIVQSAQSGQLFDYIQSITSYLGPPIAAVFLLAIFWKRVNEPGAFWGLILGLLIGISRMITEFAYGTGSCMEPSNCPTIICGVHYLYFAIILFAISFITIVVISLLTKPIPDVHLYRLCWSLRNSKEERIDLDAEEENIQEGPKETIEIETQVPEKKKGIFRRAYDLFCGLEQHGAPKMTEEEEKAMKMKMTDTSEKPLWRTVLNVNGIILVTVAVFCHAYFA
Method: (§1) SGLT1 and SGLT2 were cloned in form of cDNA from human small intestine (Genbank M24847), and from human kidney (Genbank M95549), respectively. Subsequently, each full cDNA was subcloned into pcDNA with each construct's integrity verified through follow-on sequencing. To generate CHO-K1 cells that stably express human SGLT1 or human SGLT2 CHO-K1 cells were transfected using DMRIE-C reagent (Life Technologies, Gaithersburg, Md.). Transfected cells were then selected in the presence of 500 μg/ml of the antibiotic G418 (Gibco-BRL, Grand Island, N.Y.). Individual clones were then characterized using the following cell-based assay for sodium-dependent glucose transport.
(§2) First, cell lines stably expressing human SGLT1 or SGLT2 were seeded at a density of 65,000 cells per well per 200 μl cell culture medium with 10 mM of NaButyrate (Aldrich Catalog No. 30341-0) in a 96-well flat bottom plate (COSTAR, Catalog No. 3903). For human SGLT1 or SGLT2 expressing CHO-K1 cells the culture medium comprised Ham's F-12 (Invitrogen Catalog No. 31765), Fetal Bovine Serum (Invitrogen Catalog No. 16000), G418 (Geneticin, Cellgro Catalog No. 30234-CI), Phlorizidin (Sigma Catalog No. P3449), DPBS (Cellgro Catalog No. 21030-CV), ^14C-methyl-α-D-glucopyranoside (Amersham Catalog No. CFB 76), and Methyl-α-D-glucopyranoside (Sigma Catalog No. M-9376).
(§3) The cells were allowed to incubate for 24 hours. Subsequently, the medium was aspirated from the plates and the cells were washed one time with 150 μl assay buffer and incubate 15 min with another 150 μl assay buffer which comprised 50 mM HEPES pH 7.4, 20 mM Tris Base, 5 mM KCl, 1 mM MgCl2, 1 mM CaCl2, and 137 mM NaCl. After removing the wash buffer, 40 μl assay buffer and 10 μl compound solution was added to each well, which was again allowed to incubate for 10 min.
(§4) Following the 10 min incubation, 10 μl of serial diluted Methyl-α-D-glucopyranoside (Sigma Catalog No. M-9376) containing 0.07 μCi ^14C-methyl-α-D-glucopyranoside (Amersham Catalog No. CFB 76) was added to the appropriate well and allowed to incubate for another 2 hours. ^14C-methyl-α-D-glucopyranoside (Sigma Catalog No. M-9376, St. Louis, Mo.) is a non-metabolizable glucose analog specific for sodium-dependent glucose transporters as previously described by H. Peng and J. E. Lever in “Post-transcriptional regulation of Na+/glucose cotransporter (SGLT1) gene expression in LLC-PK1 cells,” J. Biol. Chem. 270, 20536-42 (1995).
(§5) Next, the plates were twice washed with 150 μl of ice-cold DPBS (Cellgro Catalog No. 21030) that was then completely removed from the plates before adding 50 μl of MicroScint™-20 (Packard Catalog No. 6013621) to each well for a 20 min or longer incubation time.
(§6) Sodium-dependent ^14C-methyl-α-D-glucopyranoside uptake was quantified by measuring radioactivity. Plates were counted in a TopCount (Packard, Meriden, Conn.). Results are reported as the %-inhibition or IC50 value from a representative experiment. Variability for the functional assay was typically within 20%.

human SGLT2 = biological target: T2, human SGLT2 (Homo sapiens, UniProt P31639); test: Sodium-dependent 14C-methyl-α-D-glucopyranoside uptake in CHO-K1 cells stably expressing human SGLT2; type: cell-based; details: for IC50: 14C-methyl-α-D-glucopyranoside uptake; for inhibition at 3 µM: compound at 3 μM; for inhibition at 0.1 µM: compound at 0.1 μM
T2 construct: expressed in transfected cells
T2 sequence (P31639 1-672): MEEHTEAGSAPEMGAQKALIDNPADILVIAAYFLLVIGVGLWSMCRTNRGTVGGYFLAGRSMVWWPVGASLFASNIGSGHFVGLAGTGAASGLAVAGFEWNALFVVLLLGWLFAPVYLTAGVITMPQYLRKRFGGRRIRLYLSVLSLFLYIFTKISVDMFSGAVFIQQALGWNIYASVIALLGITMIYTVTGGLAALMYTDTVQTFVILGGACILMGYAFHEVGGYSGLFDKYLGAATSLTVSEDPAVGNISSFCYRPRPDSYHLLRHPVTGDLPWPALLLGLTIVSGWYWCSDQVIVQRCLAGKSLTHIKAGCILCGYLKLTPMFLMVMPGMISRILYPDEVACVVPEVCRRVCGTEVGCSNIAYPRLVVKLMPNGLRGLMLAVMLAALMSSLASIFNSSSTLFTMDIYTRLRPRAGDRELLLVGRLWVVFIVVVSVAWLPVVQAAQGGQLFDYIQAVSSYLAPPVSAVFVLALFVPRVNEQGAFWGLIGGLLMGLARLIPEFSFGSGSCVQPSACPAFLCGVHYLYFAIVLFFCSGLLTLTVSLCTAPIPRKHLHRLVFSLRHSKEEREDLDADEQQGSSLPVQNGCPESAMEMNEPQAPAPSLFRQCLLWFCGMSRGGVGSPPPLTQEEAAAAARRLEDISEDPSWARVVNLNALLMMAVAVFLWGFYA
Method: as §1, §2, §3, §4, §5, §6

Row | Structure (SMILES) | IC50 (human SGLT1) [µM] | IC50 (human SGLT2) [µM] | inhibition at 3 µM (human SGLT1) [%] | inhibition at 0.1 µM (human SGLT1) [%] | inhibition at 0.1 µM (human SGLT2) [%] | further results
1 | OC[C@@H]1C[C@H](O)[C@@H](O)[C@H](c2cc(Cc3cc4ccccc4s3)c(C3CC3)cc2O)O1 [Cpd 12, (2S,3R,4S,6S)-2-(5-(benzo[b]thiophen-2-ylmethyl)-4-cyclopropyl-2-hydroxyphenyl)-6-(hydroxymethyl)tetrahydro-2H-pyran-3,4-diol] | 0.099 | 0.683 | – | – | – | –
2 | COc1cc(O)c([C@@H]2O[C@H](CO)C[C@H](O)[C@H]2O)cc1C(=O)c1cc2ccccc2s1 [Cpd 5, benzo[b]thiophen-2-yl(5-((2S,3R,4S,6S)-3,4-dihydroxy-6-(hydroxymethyl)tetrahydro-2H-pyran-2-yl)-4-hydroxy-2-methoxyphenyl)methanone] | – | – | 0 | – | – | inhibition at 3 µM (human SGLT2): 0%
3 | C=C(c1cc2ccccc2s1)c1cc([C@@H]2O[C@H](CO)C[C@H](O)[C@H]2O)c(O)cc1OC [Cpd 7, (2S,3R,4S,6S)-2-(5-(1-(benzo[b]thiophen-2-yl)vinyl)-2-hydroxy-4-methoxyphenyl)-6-(hydroxymethyl)tetrahydro-2H-pyran-3,4-diol] | – | – | 43 | – | – | inhibition at 3 µM (human SGLT2): 6%
4 | OC[C@@H]1C[C@H](O)[C@@H](O)[C@H](c2cc(Cc3cc4ccccc4s3)c(Cl)cc2O)O1 [Cpd 3, (2S,3R,4S,6S)-2-(5-(benzo[b]thiophen-2-ylmethyl)-4-chloro-2-hydroxyphenyl)-6-(hydroxymethyl)tetrahydro-2H-pyran-3,4-diol] | 0.115 | 0.022 | – | – | – | –
5 | O=C(c1cc2ccccc2s1)c1cc([C@@H]2O[C@H](CO)C[C@H](O)[C@H]2O)c(O)cc1O [Cpd 18, benzo[b]thiophen-2-yl(5-((2S,3R,4S,6S)-3,4-dihydroxy-6-(hydroxymethyl)tetrahydro-2H-pyran-2-yl)-2,4-dihydroxyphenyl)methanone] | – | – | 19 | – | – | inhibition at 0.3 µM (human SGLT2; compound at 0.3 μM): 13%
6 | CCc1cc(O)c([C@@H]2O[C@H](CO)C[C@H](O)[C@H]2O)cc1Cc1cc2ccccc2s1 [Cpd 11, (2S,3R,4S,6S)-2-(5-(benzo[b]thiophen-2-ylmethyl)-4-ethyl-2-hydroxyphenyl)-6-(hydroxymethyl)tetrahydro-2H-pyran-3,4-diol] | – | 0.061 | 95 | – | – | –
7 | Cc1cc(O)c([C@@H]2O[C@H](CO)C[C@H](O)[C@H]2O)cc1C1(c2cc3ccccc3s2)CC1 [Cpd 10, (2S,3R,4S,6S)-2-(5-(1-(benzo[b]thiophen-2-yl)cyclopropyl)-2-hydroxy-4-methylphenyl)-6-(hydroxymethyl)tetrahydro-2H-pyran-3,4-diol] | > 3 | 0.223 | – | – | – | –
8 | COc1cc(O)c([C@@H]2O[C@H](CO)C[C@H](O)[C@H]2O)cc1C1(c2cc3ccccc3s2)CC1 [Cpd 9, (2S,3R,4S,6S)-2-(5-(1-(benzo[b]thiophen-2-yl)cyclopropyl)-2-hydroxy-4-methoxyphenyl)-6-(hydroxymethyl)tetrahydro-2H-pyran-3,4-diol] | – | – | 49 | – | – | inhibition at 3 µM (human SGLT2): 57%
9 | Cc1cc(O)c([C@@H]2O[C@H](CO)C[C@H](O)[C@H]2O)cc1Cc1cc2ccccc2s1 [Cpd 1, (2S,3R,4S,6S)-2-(5-(benzo[b]thiophen-2-ylmethyl)-2-hydroxy-4-methylphenyl)-6-(hydroxymethyl)tetrahydro-2H-pyran-3,4-diol] | 0.117 | 0.016 | – | – | – | –

Now from value to compound, other results behind:

Row | IC50 (human SGLT1) [µM] | IC50 (human SGLT2) [µM] | inhibition at 3 µM (human SGLT1) [%] | inhibition at 0.1 µM (human SGLT1) [%] | inhibition at 0.1 µM (human SGLT2) [%] | Structure (SMILES) | further results
10 | – | – | – | 31 | 40 | C=CCOc1c([C@@H]2O[C@H](CO)C[C@H](O)[C@H]2O)cc(Cc2cc3ccccc3s2)c(C)c1C [Cpd 24, (2S,3R,4S,6S)-2-(2-(allyloxy)-5-(benzo[b]thiophen-2-ylmethyl)-3,4-dimethylphenyl)-6-(hydroxymethyl)tetrahydro-2H-pyran-3,4-diol] | –
11 | – | – | – | 26 | 78 | COc1c(Cc2cc3ccccc3s2)cc([C@@H]2O[C@H](CO)C[C@H](O)[C@H]2O)c(O)c1F [Cpd 21, (2S,3R,4S,6S)-2-(5-(benzo[b]thiophen-2-ylmethyl)-3-fluoro-2-hydroxy-4-methoxyphenyl)-6-(hydroxymethyl)tetrahydro-2H-pyran-3,4-diol] | –
12 | – | – | – | 39 | 67 | Cc1c(Cc2cc3ccccc3s2)cc([C@@H]2O[C@H](CO)C[C@H](O)[C@H]2O)c(O)c1C [Cpd 22, (2S,3R,4S,6S)-2-(5-(benzo[b]thiophen-2-ylmethyl)-2-hydroxy-3,4-dimethylphenyl)-6-(hydroxymethyl)tetrahydro-2H-pyran-3,4-diol] | –
13 | 0.272 | – | – | – | 58 | Cc1cc(O)c([C@@H]2O[C@H](CO)C[C@H](O)[C@H]2O)cc1Cc1ccc(-c2ccc(F)cc2)s1 [Cpd 31, (2S,3R,4S,6S)-2-(5-((5-(4-fluorophenyl)thiophen-2-yl)methyl)-2-hydroxy-4-methylphenyl)-6-(hydroxymethyl)tetrahydro-2H-pyran-3,4-diol] | –
14 | – | – | – | 22 | 41 | Cc1cc(O)c([C@@H]2O[C@H](CO)C[C@H](O)[C@H]2O)cc1Cc1nc2ccccc2s1 [Cpd 29, (2S,3R,4S,6S)-2-(5-(benzo[d]thiazol-2-ylmethyl)-2-hydroxy-4-methylphenyl)-6-(hydroxymethyl)tetrahydro-2H-pyran-3,4-diol] | –
15 | – | – | – | 33 | 69 | Cc1cc(O)c([C@@H]2O[C@H](CO)C[C@H](O)[C@H]2O)cc1Cc1cc2ccccc2o1 [Cpd 28, (2S,3R,4S,6S)-2-(5-(benzofuran-2-ylmethyl)-2-hydroxy-4-methylphenyl)-6-(hydroxymethyl)tetrahydro-2H-pyran-3,4-diol] | –
16 | – | – | – | 44 | 73 | Cc1cc(Br)c([C@@H]2O[C@H](CO)C[C@H](O)[C@H]2O)cc1Cc1ccc(-c2ccc(F)cc2)s1 [Cpd 30, (2S,3R,4S,6S)-2-(2-bromo-5-((5-(4-fluorophenyl)thiophen-2-yl)methyl)-4-methylphenyl)-6-(hydroxymethyl)tetrahydro-2H-pyran-3,4-diol] | –
